According to US20250339445A1, “Modulators of Orphan Nuclear Receptors for Treating Pancreatitis, Glioblastoma, Sarcopenia and Stroke” (Emory University, priority 2020, published 2025):

Experiments:
FGF21 = FGF21 mRNA expression in 266-6 murine acinar cells (RT-qPCR); assay type: cell-based; settings: 266-6 cells
Description: Using one of these models, RT-qPCR analysis of FFG21 mRNA expression was performed in 266-6 murine acinar cells after 6 hours treatment of DMSO/different doses of SR1078 (commercial ROR-α agonist). The statistical significance was calculated relative to DMSO and was determined by Student's t test (two-tailed). Values in graphs are mean±SD. *p<0.05, **p<0.01, ***p<0.001, ****p<0.0001.

RORα = biological target: T1, RORα (Homo sapiens, UniProt P35398); assay: RORα activity by luciferase reporter (miR-122 promoter) in Huh-7 cells; assay type: cell-based; design: MIR122 promoter activity compared with SR1078: dose or concentration left out as unconfirmed; settings: wild type and mutant RORA
T1 construct: endogenous in cells; host or cells: Huh-7 (Huh7) human hepatocellular carcinoma cells
T1 sequence (P35398 1-523): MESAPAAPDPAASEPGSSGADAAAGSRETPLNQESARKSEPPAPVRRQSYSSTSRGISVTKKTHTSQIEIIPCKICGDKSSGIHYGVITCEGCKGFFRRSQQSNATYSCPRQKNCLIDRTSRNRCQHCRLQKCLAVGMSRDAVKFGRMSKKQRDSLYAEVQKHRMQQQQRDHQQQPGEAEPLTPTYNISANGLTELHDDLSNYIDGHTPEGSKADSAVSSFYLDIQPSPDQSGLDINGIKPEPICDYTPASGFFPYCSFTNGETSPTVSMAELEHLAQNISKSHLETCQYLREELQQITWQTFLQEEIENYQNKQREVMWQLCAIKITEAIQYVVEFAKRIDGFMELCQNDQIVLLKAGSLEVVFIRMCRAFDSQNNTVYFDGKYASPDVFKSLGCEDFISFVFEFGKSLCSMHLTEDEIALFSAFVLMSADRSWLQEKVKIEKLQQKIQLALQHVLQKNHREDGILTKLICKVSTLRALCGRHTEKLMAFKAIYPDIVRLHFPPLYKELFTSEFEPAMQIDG
Description: Huh-7 cells were transfected with a luciferase reporter plasmid containing the miR-122 promoter (extends to −900 from the transcription start site) with intact wild-type (WT) RORα response element (RORE) or mutated RORE (mut). The cells were treated with Compound 1 one day (24 hours) post-transfection at the indicated concentrations. Luciferase expression was measured after 24 hours of treatment and normalized to Renilla Luciferase activity expressed from a co-transfected pRL plasmid. The pRL Vector, which provides constitutive expression of Renilla luciferase, was used in combination with a firefly luciferase vector to co-transfect cells. Expression of Renilla luciferase provides an internal control value to which expression of the experimental firefly luciferase reporter gene may be normalized.
Luciferase assay. For Luciferase assays, cells grown in 24 well plates were co-transfected with a luciferase reporter plasmid (50 ng) and 1 ng of Renilla Luciferase vector (PRL, Promega) using the TransIT-LT 1 (Mirus) transfection reagent (MIR 2300, Madison, WI). Firefly and Renilla luciferase activity was assessed using the Dual Luciferase Reporter Assay system (Promega). Readings were taken in triplicates on a Mithras LB 940 Luminometer (Berthold Technologies). […]
Following transfections, the cells were lysed with passive lysis buffer (Cat #E1941; Promega), shaking for 20 min at RT and transferred into appropriate 96-well plate. Firefly and Renilla luciferase activity was assessed using the Dual Luciferase Reporter Assay system (Cat #E1910; Promega) on a luminometer Mithras 2000 (Centro XZ, LB960, Berthold Technologies, Bad Wildbad, Germany). […] Readings were taken in triplicate.
Following transfections, the cells were lysed with passive lysis buffer (Cat #E1941; Promega), shaking for 20 min at room temperature (RT) and transferred into the appropriate 96-well plate. Firefly and Renilla luciferase activity was assessed using the Dual Luciferase Reporter Assay system (Cat #E1910; Promega) on a luminometer Mithras 2000 (Centro XZ, LB960, Berthold Technologies, Bad Wildbad, Germany). […] Readings were taken in triplicates. […]
After transfections, the cells were lysed with passive lysis buffer (catalog no. E1941, Promega), shaken for 20 minutes at room temperature, and transferred into the appropriate 96-well plate. Firefly and Renilla luciferase activity was assessed using the Dual Luciferase Reporter Assay system (catalog no. E1910, Promega) on a luminometer Mithras 2000 (Centro XZ, LB960; Berthold Technologies, Bad Wildbad, Germany). […] Readings were taken in triplicate.

[1] = test system: peripheral and the central benzodiazepine receptors; settings: prediction later experimentally proven; cited from earlier work
MIR122 = assay: AntagoMIR122 treatment of chow or HFD fed mice; assay type: in vivo, C57BL/6 mice; settings: for MIR122 levels in plasma, liver and white adipose tissue: hydrodynamic tail vein injection, 5 μg/mouse once a week
Description: C57BL/6 mice, 7 to 8 weeks old, were fed chow or 50% HFD, consisting of 50% Fat, 20% Sucrose, 10% Fructose, 1.25% Chol) (Envigo, TD.150235) for 4 weeks. In experiments of miR-122 repression by antagomiR, mice were hydrodynamic tail vain injected with antagomiR-122 or antagomiR-control (5 μg/mouse in 1.5 mL saline) once a week for 4 weeks and were still fed HFD or chow diet. After 4 weeks of injections mice were sacrificed and the livers, white adipose, and skeletal muscle tissues were frozen in liquid nitrogen or in optimum cutting temperature embedded frozen blocks, for further RNA and histologic analysis. AntagomiRs were obtained from Sigma-Aldrich (St Louis, MO); see Table 5.
C57BL/6 mice, 7 to 8 weeks old, were fed chow or 50% HFD, consisting of 50% Fat, 20% Sucrose, 10% Fructose, 1.25% Cholesterol) (Envigo, TD.150235) for 4 weeks. In experiments of MIR122 repression by antagomiR, mice were hydrodynamic tail vain injected with antagoMIR122 or antagomiR-control (5 μg/mouse in 1.5 mL saline) once a week for 3 weeks and were still fed HFD or chow diet. After 3 weeks of injections mice were sacrificed and the livers, gonadal white adipose, and skeletal muscle tissues were frozen in liquid nitrogen or in optimum cutting temperature embedded frozen blocks, for further RNA and histologic analysis. AntagomiRs were obtained from Sigma-Aldrich (St Louis, MO).

[2] = test system: high-fat-fed C57BL/6 mice; assay: High-fat-diet-fed C57BL/6 mice treated with Compound 1 and/or antagomiR-122; assay type: in vivo; settings: 50% HFD; Compound 1 7.5 mg/kg i.p. twice a week, antagomiR once a week, 3 weeks
Description: C57BL/6 mice were fed a 50% high fat diet (HFD) for four weeks. The control cohort received three hydrodynamic tail vein injections of a 5 μg antagomiR-control and six i.p injections of saline over three weeks. A second cohort was hydrodynamic tail vein injected with 5 μg antagomiR-122 (the reverse complement that inhibits activity of miR-122) three times and i.p injections of saline six times over three weeks. A third cohort was injected i.p. with Compound 1 (7.5 mg/kg) twice a week plus antagomiR-control once a week over the course of 3 weeks. The final cohort was injected i.p. with Compound 1 (7.5 mg/kg) twice a week plus antagomiR-122 injections once a week over the course of 3 weeks.
Male C57BL/6J mice, 7 to 8 weeks old, were housed randomly in standard cages and were fed a HFD, or atherogenic diet (consisting 1% Chol and 0.5% cholic acid, see also Table 6). All mice had free access to water during the experimental period. During the feeding period body weight was monitored every 3 days. In the HFD experiment, after 4 or 6 weeks, the resultant obese mice were treated with antagomiR-122 (5 μg/mouse once a week for 3 weeks), or i.p. injected with Compound 1 (RORα agonist, 7.5 mg/kg twice a week for 3 weeks; or 15 mg/kg 3 times a week for 3 weeks). The obese control (HFD) group was administered only saline with DMSO and antagomiR-control. After 3 weeks of treatment mice were sacrificed and livers were taken for RNA-seq analysis. Livers, white adipose, and skeletal muscle tissues were frozen in liquid nitrogen or in optimum cutting temperature embedded frozen blocks, for further RNA and histologic analysis. In the atherogenic diet experiment mice were treated with 15 mg/kg Compound 1 after 3 weeks with the diet. After 3.5 weeks of treatment, mice were sacrificed, and the livers were frozen in liquid nitrogen or in optimum cutting temperature embedded frozen blocks. Plasma was collected from atherogenic diet-fed mice and saved in −20° C. for ALT and AST analysis using the Reflotron® Analyzer and test-strips (Roche).
In the HFD experiment, after 4 or 6 weeks, the resultant obese mice were treated with antagoMIR122 (5 μg/mouse once a week for 3 weeks), or i.p. injected with Compound 1 (RORα agonist, 7.5 mg/kg twice a week for 3 weeks; or 15 mg/kg 3 times a week for 3 weeks). The obese control (HFD) group was administered only saline with DMSO and antagomiR-control.
Mice were fed with a 50% HFD and after 4 weeks, when fatty liver was already established, they were treated with Compound 1, antagoMIR122 or both compounds together for an additional 3 weeks. […] The weighing of mice began at week 3, one week before treatments were initiated. […] The liver weight of the mice was in accordance with their body weight.

Molecule: O=C(Nc1ccc(C(O)(C(F)(F)F)C(F)(F)F)cc1)c1ccc(C(F)(F)F)cc1 [SR1078]
- Fgf21 expression in acinar cells (FGF21; 6 hours treatment): increases Fgf21 expression
- Concentration of optimal effect on Fgf21 expression (FGF21; 6 hours, effect decreasing at 20 and 40 μM): 10 micromolar (μM)

Molecule: O=C1Nc2cc(C(=O)N3CCC(Cc4ccccc4)CC3)ccc2Nc2ccccc21 [Compound 68]
- MIR122 promoter activity compared with SR1078 (RORα): more potent than the commercial synthetic RORA agonist SR1078

Molecule: CC(C)=CCC/C(C)=C/CC/C(C)=C/CN1C(=O)c2cccc(O)c2Nc2c(O)cc(O)cc21 [Diazepinomicin]
- Predicted CNS activity (Gourdeau et al. 2008) [1]: predicted to be CNS inactive

Molecule: antagomiR-122: MIR122 antagonist; 2′-O Me-modified, phosphorothioate, cholesterol-linked reverse complement that inhibits activity of miR-122 (antisense ACAAACACCAUUGUCACACUCCA; all 2'-O-methyl, backbone not given here; phosphorothioate linkages and cholesterol conjugate, further chemistry not fully specified)
- Mice weight (MIR122; HFD mice): increased significantly
- Liver fat droplets, total TG liver content and muscle TG levels (MIR122; HFD-fed mice): increase
- MIR122 levels in plasma, liver and white adipose tissue (MIR122): significantly reduced
- MIR122 levels in plasma, liver and white adipose tissue (MIR122; listed as antagoMIR122): reduced significantly
- Body weight [2]: highest increase in weight
